Assay results reported in patent US9499550B2 (BRISTOL-MYERS SQUIBB COMPANY, priority 2012, dated 2016).
Read-outs that look alike come from different tables or passages of the source.

Assays:
[1] = system: HCV genotype 1a (H77 strain) replicon in HUH-7 cells; test: HCV replicon luciferase reporter assay, genotype 1a; assay type: cell-based; conditions: Hepatitis C virus, Huh-7, 72 h, 3 days incubation
Summary of the method: (§1)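 Replicon inhibition for both genotypes was measured as Renilla luciferase signal (EnduRen, 7.5 μM final, 2 h) after 3-day, 37° C exposure of replicon-bearing HUH-7 cells in 4% FCS DMEM, 0.5% DMSO. The 1b construct carries S1179I; the 1a H77 construct carries P1496L and S2204I. Twenty-point, 3-fold dilutions were fitted four-parametrically for EC50, and CC50 was taken from multiplexed Cell Titer-Blue.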

[2] = system: HCV genotype 1b (Con1) replicon in HUH-7 cells; test: HCV replicon luciferase reporter assay, genotype 1b; assay type: cell-based; conditions: Hepatitis C virus, Huh-7, 72 h, 3 days incubation
Summary of the method: as §1

[3] = HCV genotype 1a replicon luciferase assay, range class, read-out: LE_1a (EC50, range)
[4] = HCV genotype 1b replicon luciferase assay, range class, read-out: LE_1b (EC50, range)
[5] = HCV genotype 1a replicon luciferase, read-out: LE_1a (EC50, range)
[6] = HCV genotype 1b replicon luciferase, read-out: LE_1b (EC50, range)
[7] = GETYPE1A, HCV genotype 1a replicon luciferase, read-out: LE_1a (EC50, range)
[8] = GETYPE1B, HCV genotype 1b replicon luciferase, read-out: LE_1b (EC50, range)

CC(C)Oc1cc2c(Cl)cccc2c(O[C@@H]2C[C@H]3C(=O)N[C@]4(C(=O)NS(=O)(=O)C5(C)CC5)C[C@H]4/C=C\CC[C@H](C)C[C@@H](C)[C@H](NC(=O)OC(C)(C)C(C)(F)F)C(=O)N3C2)n1 [Compound 1103, 3,3-difluoro-2-methylbutan-2-yl((2R,6S,7R,9S,13aS,14aR,16aS,Z)-2-((5-chloro-3-isopropoxyisoquinolin-1-yl)oxy)-7,9-dimethyl-14a-(((1-methylcyclopropyl)sulfonyl)carbamoyl)-5,16-dioxo-1,2,3,5,6,7,8,9,10,11,13a,14,14a,15,16,16a-hexadecahydrocyclopropa[e]pyrrolo[1,2-a][1,4]diazacyclopentadecin-6-yl)carbamate]
EC50 [1, 3]: 4.82 to 103 nM
EC50 [2, 4]: < 5.46 nM

CCOc1cc2ccccc2c(O[C@@H]2C[C@H]3C(=O)N[C@]4(C(=O)NS(=O)(=O)C5(C)CC5)C[C@H]4/C=C\CC[C@@H](C)C[C@@H](C)[C@H](NC(=O)OC(C)(C)C(C)(F)F)C(=O)N3C2)n1 [Compound 6102, 3,3-difluoro-2-methylbutan-2-yl((2R,6S,7R,9R,13aS,14aR,16aS,Z)-2-((3-ethoxyisoquinolin-1-yl)oxy)-7,9-dimethyl-14a-(((1-methylcyclopropyl)sulfonyl)carbamoyl)-5,16-dioxo-1,2,3,5,6,7,8,9,10,11,13a,14,14a,15,16,16a-hexadecahydrocyclopropa[e]pyrrolo[1,2-a][1,4]diazacyclopentadecin-6-yl)carbamate]
EC50 [1, 5]: 0.51 to 1 nM
EC50 [2, 6]: 0.1 to 0.5 nM

COc1ccc2c(O[C@@H]3C[C@H]4C(=O)N[C@]5(C(=O)NS(=O)(=O)C6CC6)C[C@H]5/C=C\CC[C@H](C)C[C@@H](C)[C@H](NC(=O)OCC5(C)CC5)C(=O)N4C3)nc(-c3ccc(OC(C)C)c(F)c3)cc2c1 [Compound 3065, (1-methylcyclopropyl)methyl ((2R,6S,7R,9S,13aS,14aR,16aS,Z)-14a-((cyclopropylsulfonyl)carbamoyl)-2-((3-(3-fluoro-4-isopropoxyphenyl)-6-methoxyisoquinolin-1-yl)oxy)-7,9-dimethyl-5,16-dioxo-1,2,3,5,6,7,8,9,10,11,13a,14,14a,15,16,16a-hexadecahydrocyclopropa[e]pyrrolo[1,2-a][1,4]diazacyclopentadecin-6-yl)carbamate]
EC50 [1, 3]: 4.82 to 103 nM
EC50 [2, 4]: < 5.46 nM

COc1ccc2nc(C(C)C)c(O[C@@H]3C[C@H]4C(=O)N[C@]5(C(=O)NS(=O)(=O)C6(C)CC6)C[C@H]5/C=C\CC[C@@H](C)C[C@@H](C)[C@H](NC(=O)OC(C)(C)C(F)(F)F)C(=O)N4C3)nc2c1 [Compound 4259]
EC50 [1, 7]: 1.01 to 5 nM
EC50 [2, 8]: 0.51 to 1 nM

C[C@H]1CC/C=C\[C@@H]2C[C@@]2(C(=O)NS(=O)(=O)C2(C)CC2)NC(=O)[C@@H]2C[C@@H](Oc3nc(OCC(F)F)cc4c(Cl)cccc34)CN2C(=O)[C@@H](NC(=O)OC(C)(C)C(F)(F)F)[C@H](C)C1 [Compound 1097, 1,1,1-trifluoro-2-methylpropan-2-yl((2R,6S,7R,9S,13aS,14aR,16aS,Z)-2-((5-chloro-3-(2,2-difluoroethoxyl)isoquinolin-1-yl)oxy)-7,9-dimethyl-14a-(((1-methylcyclopropyl)sulfonyl)carbamoyl)-5,16-dioxo-1,2,3,5,6,7,8,9,10,11,13a,14,14a,15,16,16a-hexadecahydrocyclopropa[e]pyrrolo[1,2-a][1,4]diazacyclopentadecin-6-yl)carbamate]
EC50 [1, 3]: 4.82 to 103 nM
EC50 [2, 4]: < 5.46 nM

C[C@@H]1CC/C=C\[C@@H]2C[C@@]2(C(=O)NS(=O)(=O)C2CC2)NC(=O)[C@@H]2C[C@@H](Oc3nc(OCC(F)F)cc4c(Cl)cccc34)CN2C(=O)[C@@H](NC(=O)OC(C)(C)C(F)(F)F)[C@H](C)C1 [Compound 1096, 1,1,1-trifluoro-2-methylpropan-2-yl((2R,6S,7R,9R,13aS,14aR,16aS,Z)-2-((5-chloro-3-(2,2-difluoroethoxyl)isoquinolin-1-yl)oxy)-14a-((cyclopropylsulfonyl)carbamoyl)-7,9-dimethyl-5,16-dioxo-1,2,3,5,6,7,8,9,10,11,13a,14,14a,15,16,16a-hexadecahydrocyclopropa[e]pyrrolo[1,2-a][1,4]diazacyclopentadecin-6-yl)carbamate]
EC50 [1, 3]: < 5.46 nM
EC50 [2, 4]: < 5.46 nM

CC[C@@H]1C[C@H](C)CC/C=C\[C@@H]2C[C@@]2(C(=O)NS(=O)(=O)C2(C)CC2)NC(=O)[C@@H]2C[C@@H](Oc3nccc4cc(OC)c(F)cc34)CN2C(=O)[C@H]1NC(=O)N1CCOCC1 [Compound 4333, N-((2R,6S,7R,9R,13aS,14aR,16aS,Z)-7-ethyl-2-((7-fluoro-6-methoxyisoquinolin-1-yl)oxy)-9-methyl-14a-(((1-methylcyclopropyl)sulfonyl)carbamoyl)-5,16-dioxo-1,2,3,5,6,7,8,9,10,11,13a,14,14a,15,16,16a-hexadecahydrocyclopropa[e]pyrrolo[1,2-a][1,4]diazacyclopentadecin-6-yl)morpholine-4-carboxamide]
EC50 [1, 5]: 5.01 to 35 nM
EC50 [2, 6]: 5.01 to 35 nM

COc1ccc2c(O[C@@H]3C[C@H]4C(=O)N[C@]5(C(=O)NS(=O)(=O)C6(C)CC6)C[C@H]5/C=C\CC[C@@H](C)C[C@@H](C)[C@H](NC(=O)O[C@H](C)C(F)(F)F)C(=O)N4C3)nc(N3CCOCC3)cc2c1 [Compound 3093, (R)-1,1,1-trifluoropropan-2-yl ((2R,6S,7R,9R,13aS,14aR,16aS,Z)-2-((6-methoxy-3-morpholinoisoquinolin-1-yl)oxy)-7,9-dimethyl-14a-(((1-methylcyclopropyl)sulfonyl)carbamoyl)-5,16-dioxo-1,2,3,5,6,7,8,9,10,11,13a,14,14a,15,16,16a-hexadecahydrocyclopropa[e]pyrrolo[1,2-a][1,4]diazacyclopentadecin-6-yl)carbamate]
EC50 [1, 3]: < 5.46 nM
EC50 [2, 4]: < 5.46 nM

COc1ccc2c(O[C@@H]3C[C@H]4C(=O)N[C@]5(C(=O)NS(=O)(=O)C6CC6)C[C@H]5/C=C\CC[C@H](C)C[C@@H](C)[C@H](NC(=O)OC5C[C@@H]6C[C@@H]6C5)C(=O)N4C3)nc(-c3ccc(N4CCOCC4)cc3)cc2c1 (stereo partly drawn) [Compound 5194, (1R,3r,5S)-bicyclo[3.1.0]hexan-3-yl((2R,6S,7R,9S,13aS,14aR,16aS,Z)-14a-((cyclopropylsulfonyl)carbamoyl)-2-((6-methoxy-3-(4-morpholinophenyl)isoquinolin-1-yl)oxy)-7,9-dimethyl-5,16-dioxo-1,2,3,5,6,7,8,9,10,11,13a,14,14a,15,16,16a-hexadecahydrocyclopropa[e]pyrrolo[1,2-a][1,4]diazacyclopentadecin-6-yl)carbamate]
EC50 [1, 5]: < 5.46 nM
EC50 [2, 6]: < 5.46 nM

[2H]C([2H])([2H])C(OC(=O)N[C@@H]1C(=O)N2C[C@H](Oc3nnc(OCC)c4ccccc34)C[C@H]2C(=O)N[C@]2(C(=O)NS(=O)(=O)C3(C)CC3)C[C@H]2/C=C\CC[C@@H](C)C[C@H]1C)(C([2H])([2H])[2H])C(F)(F)F [Compound 5033]
EC50 [1, 5]: < 5.46 nM
EC50 [2, 6]: < 5.46 nM

C[C@@H]1CC/C=C\[C@@H]2C[C@@]2(C(=O)NS(=O)(=O)C2CC2)NC(=O)[C@@H]2C[C@@H](Oc3nccc4ccc(F)cc34)CN2C(=O)[C@@H](NC(=O)OC2(C)CC2)[C@H](C)C1 [Compound 4073, 1-methylcyclopropyl (2R,6S,7R,9R,13aS,14aR,16aS,Z)-14a-(cyclopropylsulfonylcarbamoyl)-2-(7-fluoroisoquinolin-1-yloxy)-7,9-dimethyl-5,16-dioxo-1,2,3,5,6,7,8,9,10,11,13a,14,14a,15,16,16a-hexadecahydrocyclopropa[e]pyrrolo[1,2-a][1,4]diazacyclopentadecin-6-ylcarbamate]
EC50 [1, 5]: < 5.46 nM
EC50 [2, 6]: < 5.46 nM

COc1cc2cc(-c3ccc(OC(C)C)cc3)nc(O[C@@H]3C[C@H]4C(=O)N[C@]5(C(=O)NS(=O)(=O)C6(C)CC6)C[C@H]5/C=C\CC[C@@H](C)C[C@@H](C)[C@H](NC(=O)OC(C)(C)C)C(=O)N4C3)c2cc1F [Compound 3184, tert-butyl ((2R,6S,7R,9R,13aS,14aR,16aS,Z)-2-((7-fluoro-3-(4-isopropoxyphenyl)-6-methoxyisoquinolin-1-yl)oxy)-7,9-dimethyl-14a-(((1-methylcyclopropyl)sulfonyl)carbamoyl)-5,16-dioxo-1,2,3,5,6,7,8,9,10,11,13a,14,14a,15,16,16a-hexadecahydrocyclopropa[e]pyrrolo[1,2-a][1,4]diazacyclopentadecin-6-yl)carbamate]
EC50 [1, 3]: < 5.46 nM
EC50 ([1]; HCV genotype 1a replicon luciferase assay, read-out: LE_1a (EC50)): 2.78 nM
EC50 [2, 4]: < 5.46 nM
EC50 ([2]; HCV genotype 1b replicon luciferase assay, read-out: LE_1b (EC50)): 1.26 nM

CC[C@@H]1C[C@H](C)CC/C=C\[C@@H]2C[C@@]2(C(=O)NS(=O)(=O)C2CC2)NC(=O)[C@@H]2C[C@@H](Oc3nc4cc(OC)ccc4nc3Cl)CN2C(=O)[C@H]1NC(=O)OC(C)(C)C(F)(F)F [Compound 4271]
EC50 [1, 7]: 1.01 to 5 nM
EC50 [2, 8]: 0.1 to 0.5 nM
